Results on 14 molecules are retold here after patent US20250163104A1, “MACROCYCLIC IMMUNOMODULATORS” (priority 2021, published 2025).

In this assay the target is T1, human PD-1 / PD-L1-Ig binding on Jurkat cell line over-expressing human PD-1 (Jurkat-PD-1) (Homo sapiens, UniProt Q15116).
T1 construct: expressed in transfected cells; host or cells: Jurkat
The experiment in a line: Jurkat-PD-1 Cell Binding High-Content Screening Assay (CBA). The conditions noted are these: PE-labeled PD-L1-Ig 20 nM final. The class given is cell-based. An outline of the steps: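 Cell-bound PE-labeled PD-L1-Ig (20 nM final, 1 h) measured by high-content imaging after fixation and Hoechst 33342 counterstain. Compound was applied first for 2 h at 37° C. to Jurkat cells over-expressing human PD-1 in DMEM with 10% FCS.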

[1] abbreviates: Jurkat-PD-1 cells, read-out: Jurkat HPD1_PDL1 IC50.
The mark [2] stands for this setting: Jurkat HPD1_PDL1 IC50, Jurkat-PD-1 cells.

Read-outs that look alike come from different tables or passages of the source. Where a SMILES comes first, the peptide text is derived from it. Bridges are numbered along the chain shown (N, C = ends). [ ]: non-standard residue; d: D form. The star is where a group is joined. Phe(3-CF3) = N[C@@H](Cc1cccc(C(F)(F)F)c1)C(=O)O; Ala(morpholin-4-yl) = N[C@@H](CN1CCOCC1)C(=O)O; Phe(4-COOH) = N[C@@H](Cc1ccc(C(=O)O)cc1)C(=O)O; Bip = N[C@@H](Cc1ccc(-c2ccccc2)cc1)C(=O)O; Phe(3-Me) = Cc1cccc(C[C@H](N)C(=O)O)c1; Ala(cPent) = N[C@@H](CC1CCCC1)C(=O)O; AEF = NCCOc1ccc(C[C@H](N)C(=O)O)cc1; Val(3-OH) = CC(C)(O)[C@H](N)C(=O)O; 3Pal = N[C@@H](Cc1cccnc1)C(=O)O; 4Pal = N[C@@H](Cc1ccncc1)C(=O)O; Cha = N[C@@H](CC1CCCCC1)C(=O)O; Cit = NC(=O)NCCC[C@H](N)C(=O)O; dDab = NCC[C@@H](N)C(=O)O; Carboxymethyl = O=C(O)C*; NMeA = CN[C@@H](C)C(=O)O; Nle = CCCC[C@H](N)C(=O)O; Orn = NCCC[C@H](N)C(=O)O; Dab = NCC[C@H](N)C(=O)O; Dap = NC[C@H](N)C(=O)O; Ac3c = NC1(C(=O)O)CC1; X1 = C1CCC(*)CC1

T1 sequence (Q15116 25-288): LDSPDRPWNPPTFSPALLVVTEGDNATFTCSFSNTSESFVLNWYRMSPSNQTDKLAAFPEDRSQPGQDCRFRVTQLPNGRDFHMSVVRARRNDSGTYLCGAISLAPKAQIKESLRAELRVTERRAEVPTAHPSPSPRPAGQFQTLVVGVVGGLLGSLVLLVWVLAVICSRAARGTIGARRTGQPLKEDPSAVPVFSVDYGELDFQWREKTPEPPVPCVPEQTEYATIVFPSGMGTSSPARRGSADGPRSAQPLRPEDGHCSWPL

For `CC(C)C[C@H]1NC(=O)[C@H](CCCN)NC(=O)[C@H](CCC(=O)O)NC(=O)[C@H](Cc2ccc(-c3ccccc3)cc2)NC(=O)[C@H](C(C)C)NC(=O)[C@H](Cc2c[nH]c3ccccc23)NC(=O)[C@H](CC(=O)O)NC(=O)[C@H](Cc2ccc(OCC(=O)O)cc2)NC(=O)[C@H](CN)NC(=O)CSC[C@@H](C(=O)N[C@@H](C)C(N)=O)NC(=O)[C@H]([C@@H](C)O)NC(=O)[C@H](C(C)C)NC(=O)[C@H](Cc2cccc(C(F)(F)F)c2)NC(=O)[C@H](CCN)NC1=O` [Compound 1468] ({CH2CO}-[Dap]Y(Carboxymethyl)DWV[Bip]E[Orn][dL][Dab][Phe(3-CF3)]VTCA-NH2; thioether N-14), the IC50 (as a rule, the midpoint of a concentration-inhibition curve) under setting [1] was found to be 73.5 nM.
As to `CC(C)C[C@H]1NC(=O)[C@H](CCCN)NC(=O)[C@H](CCC(=O)O)NC(=O)[C@H](Cc2ccc(-c3ccccc3)cc2)NC(=O)[C@H](C(C)C)NC(=O)[C@H](Cc2c[nH]c3ccccc23)NC(=O)[C@H](CC(=O)O)NC(=O)[C@H](Cc2cccnc2)NC(=O)[C@H](CN)NC(=O)CSC[C@@H](C(=O)N[C@@H](C)C(N)=O)NC(=O)[C@H]([C@@H](C)O)NC(=O)[C@H](C(C)C)NC(=O)[C@H](CC2CCCCC2)NC(=O)[C@H](CCN)NC1=O` [Compound 2172] ({CH2CO}-[Dap][3Pal]DWV[Bip]E[Orn][dL][Dab][Cha]VTCA-NH2; thioether N-14), under setting [1], the half-maximal inhibitory concentration (IC50) is 23.7 nM.
Turning to `Cc1cccc(C[C@@H]2NC(=O)[C@H](CC(=O)O)NC(=O)[C@H](Cc3ccc(OCC(=O)O)cc3)NC(=O)[C@H](Cc3ccncc3)NC(=O)CSC[C@@H](C(=O)NC3(C(N)=O)CC3)NC(=O)[C@H](CO)NC(=O)[C@H](C(C)C)NC(=O)[C@H](CC3CCCCC3)NC(=O)[C@H](CCN)NC(=O)[C@@H](CC(C)C)NC(=O)[C@H](CCCN)NC(=O)[C@H](Cc3ccc(OCC(=O)O)cc3)NC(=O)[C@H](Cc3ccc(-c4ccccc4)cc3)NC(=O)[C@H](Cc3ccc(OCC(=O)O)cc3)NC2=O)c1` [Compound 2064] ({CH2CO}-[4Pal]Y(Carboxymethyl)D[Phe(3-Me)]Y(Carboxymethyl)[Bip]Y(Carboxymethyl)[Orn][dL][Dab][Cha]VSC[Ac3c]-NH2; thioether N-14), the IC50 under setting [1] amounted to 11.7 nM.
Turning to `CC(C)C[C@H]1NC(=O)[C@H](CCCN)NC(=O)[C@H](Cc2ccc(C(=O)O)cc2)NC(=O)[C@H](Cc2ccc(-c3ccccc3)cc2)NC(=O)[C@H](Cc2ccc(OC3CCCCC3)cc2)NC(=O)[C@H](Cc2cccc(C(F)(F)F)c2)NC(=O)[C@H](CC(=O)O)NC(=O)[C@H](Cc2ccc(C(=O)O)cc2)NC(=O)[C@H](CN2CCOCC2)NC(=O)CSC[C@@H](C(=O)N[C@@H](CCN)C(N)=O)NC(=O)[C@H](CCC(=O)O)NC(=O)[C@H](C(C)C)NC(=O)[C@H](CC2CCCCC2)NC(=O)[C@H](CCN)NC1=O` [Example 2729] ({CH2CO}-[Ala(morpholin-4-yl)][Phe(4-COOH)]D[Phe(3-CF3)]Y(X1)[Bip][Phe(4-COOH)][Orn][dL][Dab][Cha]VEC[Dab]-NH2; thioether N-14), under setting [1], the IC50 is 2 nM.
On to `Cc1cccc(C[C@@H]2NC(=O)[C@H](CC(=O)O)NC(=O)[C@H](Cc3ccc(C(=O)O)cc3)NC(=O)[C@H](C)N(C)C(=O)CSC[C@@H](C(=O)N[C@@H](CCN)C(N)=O)NC(=O)[C@H](CCC(=O)O)NC(=O)[C@H](C(C)(C)O)NC(=O)[C@H](CC3CCCCC3)NC(=O)[C@H](CCN)NC(=O)[C@@H](CC(C)C)NC(=O)[C@H](CCCN)NC(=O)[C@H](Cc3ccc(OCC(=O)O)cc3)NC(=O)[C@H](Cc3ccc(-c4ccccc4)cc3)NC(=O)[C@H](Cc3ccc(OCC(=O)O)cc3)NC2=O)c1` [Compound 2690] ({CH2CO}-[NMeA][Phe(4-COOH)]D[Phe(3-Me)]Y(Carboxymethyl)[Bip]Y(Carboxymethyl)[Orn][dL][Dab][Cha][Val(3-OH)]EC[Dab]-NH2; thioether N-14), for which the IC50 under setting [1] amounted to 481 nM.
Same read-out and setting: then `CC(C)C[C@@H]1NC(=O)[C@H](CCN)NC(=O)[C@@H](CC(C)C)NC(=O)[C@@H](CCN)NC(=O)[C@H](C(C)C)NC(=O)[C@H](Cc2ccc(-c3ccccc3)cc2)NC(=O)[C@H](C(C)C)NC(=O)[C@H](Cc2c[nH]c3ccccc23)NC(=O)[C@H](CC(=O)O)NC(=O)[C@H](Cc2ccc(O)cc2)NC(=O)[C@H](CC(N)=O)NC(=O)CSC[C@@H](C(=O)N[C@@H](C)C(N)=O)NC(=O)[C@H]([C@@H](C)O)NC(=O)[C@H](C(C)C)NC1=O` [Compound 1023] ({CH2CO}-NYDWV[Bip]V[dDab][dL][Dab]LVTCA-NH2; thioether N-14), with 4.6 nM; and `CC(C)C[C@H]1NC(=O)[C@H](CCCN)NC(=O)[C@H](CCC(=O)O)NC(=O)[C@H](Cc2ccc(-c3ccccc3)cc2)NC(=O)[C@H](C(C)C)NC(=O)[C@H](Cc2c[nH]c3ccccc23)NC(=O)[C@H](CC(=O)O)NC(=O)[C@H](Cc2ccc(OCC(=O)O)cc2)NC(=O)[C@H](CN)NC(=O)CSC[C@@H](C(=O)N[C@@H](C)C(N)=O)NC(=O)[C@H]([C@@H](C)O)NC(=O)[C@H](C(C)C)NC(=O)[C@H](Cc2ccc(OCCN)cc2)NC(=O)[C@H](CCN)NC1=O` [Compound 1511] ({CH2CO}-[Dap]Y(Carboxymethyl)DWV[Bip]E[Orn][dL][Dab][AEF]VTCA-NH2; thioether N-14), with 737 nM.
Regarding `CC(C)C[C@H]1NC(=O)[C@H](CCCN)NC(=O)[C@H](C(C)C)NC(=O)[C@H](Cc2ccc(-c3ccccc3)cc2)NC(=O)[C@H](C(C)C)NC(=O)[C@H](Cc2c[nH]c3ccccc23)NC(=O)[C@H](CC(=O)O)NC(=O)[C@H](Cc2ccc(OCC(=O)O)cc2)NC(=O)[C@H](CN)NC(=O)CSC[C@@H](C(=O)N[C@@H](C)C(N)=O)NC(=O)[C@H]([C@@H](C)O)NC(=O)[C@H](C(C)C)NC(=O)[C@H](Cc2ccc(O)cc2)NC(=O)[C@H](CCN)NC1=O` [Compound 1681] ({CH2CO}-[Dap]Y(Carboxymethyl)DWV[Bip]V[Orn][dL][Dab]YVTCA-NH2; thioether N-14), under setting [1], the IC50 is 48.9 nM.
The same measure, in the same setting: then `CC[C@H](C)[C@@H]1NC(=O)[C@H](Cc2c[nH]c3ccccc23)NC(=O)[C@H](CC(=O)O)NC(=O)[C@H](Cc2ccc(OCC(=O)O)cc2)NC(=O)[C@H](CN)NC(=O)CSC[C@@H](C(=O)N[C@@H](C)C(N)=O)NC(=O)[C@H]([C@@H](C)O)NC(=O)[C@H](C(C)C)NC(=O)[C@H](CC2CCCCC2)NC(=O)[C@H](CCN)NC(=O)[C@@H](CC(C)C)NC(=O)[C@H](CCCN)NC(=O)[C@H](C(C)C)NC(=O)[C@H](Cc2ccc(-c3ccccc3)cc2)NC1=O` [Compound 1733] ({CH2CO}-[Dap]Y(Carboxymethyl)DWI[Bip]V[Orn][dL][Dab][Cha]VTCA-NH2; thioether N-14), with 16.7 nM.
Take `CC(C)C[C@@H]1NC(=O)[C@H](Cc2c[nH]c3ccccc23)NC(=O)[C@H](CC(=O)O)NC(=O)[C@H](Cc2ccc(OCC(=O)O)cc2)NC(=O)[C@H](CN)NC(=O)CSC[C@@H](C(=O)NCC(N)=O)NC(=O)[C@H](CO)NC(=O)[C@H](C(C)C)NC(=O)[C@H](CC2CCCCC2)NC(=O)[C@H](CC(N)=O)NC(=O)[C@@H](CC(C)C)NC(=O)[C@H](CCCN)NC(=O)[C@H](C(C)C)NC(=O)[C@H](Cc2ccc(-c3ccccc3)cc2)NC1=O` [Compound 1336] ({CH2CO}-[Dap]Y(Carboxymethyl)DWL[Bip]V[Orn][dL]N[Cha]VSCG-NH2; thioether N-14): the IC50 under setting [2] came to 21.2 nM.
Regarding `CC(C)C[C@@H]1NC(=O)[C@H](CCN)NC(=O)[C@@H](CC(C)C)NC(=O)[C@H](CCCN)NC(=O)[C@H](CCCNC(N)=O)NC(=O)[C@H](Cc2ccc(-c3ccccc3)cc2)NC(=O)[C@H](C(C)C)NC(=O)[C@H](Cc2c[nH]c3ccccc23)NC(=O)[C@H](CC(=O)O)NC(=O)[C@H](Cc2ccc(O)cc2)NC(=O)[C@H](CC(N)=O)NC(=O)CSC[C@@H](C(=O)NCC(N)=O)NC(=O)[C@H]([C@@H](C)O)NC(=O)[C@H](C(C)C)NC1=O` [Compound 1115] ({CH2CO}-NYDWV[Bip][Cit][Orn][dL][Dab]LVTCG-NH2; thioether N-14), under setting [1], the IC50 was found to be 79.6 nM.
With `CCCC[C@@H]1NC(=O)[C@H](CCN)NC(=O)[C@@H](CC(C)C)NC(=O)[C@H](CCCN)NC(=O)[C@H](CCCNC(N)=O)NC(=O)[C@H](Cc2ccc(-c3ccccc3)cc2)NC(=O)[C@H](C(C)C)NC(=O)[C@H](Cc2c[nH]c3ccccc23)NC(=O)[C@H](CC(=O)O)NC(=O)[C@H](Cc2ccc(O)cc2)NC(=O)[C@H](CC(N)=O)NC(=O)CSC[C@@H](C(=O)N[C@@H](C)C(N)=O)NC(=O)[C@H]([C@@H](C)O)NC(=O)[C@H](C(C)C)NC1=O` [Compound 1162] ({CH2CO}-NYDWV[Bip][Cit][Orn][dL][Dab][Nle]VTCA-NH2; thioether N-14), the IC50 under setting [1] amounted to 327 nM.
Take `CC[C@H](C)[C@@H]1NC(=O)[C@H](Cc2ccc(-c3ccccc3)cc2)NC(=O)[C@H](CC2CCCC2)NC(=O)[C@H](Cc2c[nH]c3ccccc23)NC(=O)[C@H](CC(=O)O)NC(=O)[C@H](Cc2ccc(OCC(=O)O)cc2)NC(=O)[C@H](CN)NC(=O)CSC[C@@H](C(=O)N[C@@H](C)C(N)=O)NC(=O)[C@H]([C@@H](C)O)NC(=O)[C@H](C(C)C)NC(=O)[C@H](CC2CCCCC2)NC(=O)[C@H](CCN)NC(=O)[C@@H](CC(C)C)NC(=O)[C@H](CCCN)NC1=O` [Compound 1723] ({CH2CO}-[Dap]Y(Carboxymethyl)DW[Ala(cPent)][Bip]I[Orn][dL][Dab][Cha]VTCA-NH2; thioether N-14): the IC50 under setting [1] was 20.8 nM.
`CC(C)C[C@H]1NC(=O)[C@H](CCCN)NC(=O)[C@H](C(C)C)NC(=O)[C@H](Cc2ccc(-c3ccccc3)cc2)NC(=O)[C@H](C(C)C)NC(=O)[C@H](Cc2c[nH]c3ccccc23)NC(=O)[C@H](CC(=O)O)NC(=O)[C@H](Cc2ccc(OCC(=O)O)cc2)NC(=O)[C@H](Cc2ccc(OCC(=O)O)cc2)NC(=O)CSC[C@@H](C(=O)N[C@@H](C)C(N)=O)NC(=O)[C@H]([C@@H](C)O)NC(=O)[C@H](C(C)C)NC(=O)[C@H](CC2CCCCC2)NC(=O)[C@H](Cc2c[nH]cn2)NC1=O` [Compound 1591] gave an IC50 under setting [2] of 17.9 nM.
